Results: patent US20090155395A1 (SAGITTARIUS LIFE SCIENCE CORP., priority 2007, published 2009)
In brackets after ≈: the same amount, converted by molar mass. Read-outs that look alike come from different tables or passages of the source.

Columns and labels:
[1] = target: T1, Steroid 5-α-reductase isolated from liver of Wistar rat (Rattus norvegicus, UniProt P24008); test: Steroid 5-α-reductase inhibition (testosterone EIA); assay type: biochemical; details: rat liver enzyme, 1 μM testosterone, 30 minutes
T1 construct: isolated from liver of Wistar rat by conventional centrifugation; from tissue; host or cells: liver of Wistar rat
T1 sequence (P24008 1-259): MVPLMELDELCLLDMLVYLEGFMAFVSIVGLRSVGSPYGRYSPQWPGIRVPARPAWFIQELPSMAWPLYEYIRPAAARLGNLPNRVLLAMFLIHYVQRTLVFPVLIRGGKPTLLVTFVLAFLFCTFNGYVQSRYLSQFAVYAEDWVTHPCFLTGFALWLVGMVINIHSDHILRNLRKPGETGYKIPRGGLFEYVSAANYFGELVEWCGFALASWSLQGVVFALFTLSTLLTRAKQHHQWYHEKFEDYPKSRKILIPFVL
From the text: Steroid 5-α-reductase isolated from liver of Wistar rat by conventional centrifugation was used (Liang T, et. al., Endocrinology. 1985;117(2): 571-9).
The reaction was terminated by addition of 1 N HCl and neutrilized by 1 N NaOH. Testosterone was quantitated by using a Testosterone EIA Kit.

[2] = target: T2, Human recombinant Cyclooxygenase-2 expressed in Sf21 cells (Homo sapiens, UniProt P35354); test: COX II inhibition (PGE2 EIA); assay type: biochemical; details: human recombinant enzyme, 0.3 μM arachidonic acid
T2 construct: purchased Sigma C-0858; host or cells: Sf21 cells
T2 sequence (P35354 18-604): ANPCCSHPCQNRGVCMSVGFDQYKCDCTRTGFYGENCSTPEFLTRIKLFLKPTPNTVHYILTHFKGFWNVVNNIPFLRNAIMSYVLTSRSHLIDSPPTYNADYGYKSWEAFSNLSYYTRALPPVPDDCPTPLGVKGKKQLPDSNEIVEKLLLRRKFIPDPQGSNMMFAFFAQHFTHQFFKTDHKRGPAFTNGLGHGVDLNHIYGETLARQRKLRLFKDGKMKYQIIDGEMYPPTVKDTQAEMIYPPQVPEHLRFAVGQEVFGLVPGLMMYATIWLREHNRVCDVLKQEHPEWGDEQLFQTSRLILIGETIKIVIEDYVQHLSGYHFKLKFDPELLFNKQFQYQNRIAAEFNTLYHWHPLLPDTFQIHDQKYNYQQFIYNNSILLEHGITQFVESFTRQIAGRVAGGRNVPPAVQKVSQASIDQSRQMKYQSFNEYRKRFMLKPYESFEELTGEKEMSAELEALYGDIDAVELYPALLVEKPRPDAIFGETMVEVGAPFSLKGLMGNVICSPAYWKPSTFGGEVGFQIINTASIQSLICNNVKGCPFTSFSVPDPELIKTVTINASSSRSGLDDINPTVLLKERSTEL
Description: The reaction was initiated by addition of 0.3 μM arachidonic acid for 5 minutes and terminated by further addition of 1 N HCl. Following centrifugation, substrate conversion to PGE2 was measured by an Amersham EIA kit.

[3] = system: Propionibacterium acnes (ATCC 6919); test: Minimum inhibitory concentration (MIC), broth dilution method; assay type: cell-based
Description: Minimum inhibitory concentration (MIC) was determined by the broth dilution method (Edwards, J. R. et. al., Antimicrob Agents Chemother. 1989; 33(2):215-22).
10 ul aliquot (1% DMSO final concentration) of serial dilutions were added into 0.99 ml of Reinforced Clostridial Medium (Oxiod, England.) with 1-5×10^5 CFU/ml of Propionibacterium acnes (ATCC 6919). […] Vehicle-control and active reference agents were used as blank and positive controls, respectively.

[4] = Free radical scavenger, SOD mimetic activity (xanthine-xanthine oxidase / NBT reduction); assay type: biochemical; details: inhibition of NBT reduction, pH 10.5, 25° C., 20 minutes
Description: (§1) The method to measure SOD (SOD, EC.1.15.1.1) activity was based on the inhibition of nitroblue tetrazolium reduction with xanthine-xanthine oxidase used as a superoxide generator (Sun Y, et. al., Clin. Chem. 1988; 34: 497-500).
(§2) Conversion of xanthine to uric acid +O^−+NBT to formazan was then determined by measurement of absorbance at 595 nm and percent inhibition by superoxide dismutase mimetic or test compound was calculated.

[5] = target: xanthine-xanthine oxidase (superoxide generator); test: Superoxide dismutase (SOD) mimetic activity, inhibition of nitroblue tetrazolium reduction; assay type: biochemical; details: 0.12 mM xanthine, 6 mU xanthine oxidase, 27 μM NBT, pH 10.5, 25° C., 20 minutes
Description: as §1, §2

[6] = Cutibacterium acnes, ATCC6919, broth dilution, 37° C., 48 hours, anaerobic, read-out: MIC

CCCCC/C=C\C/C=C\C/C=C\CCCCC(=O)O [γ-Linolenic Acid]
IC50 [1]: 14000 nM

O=C(O)c1cccnc1Nc1cccc(C(F)(F)F)c1 [Niflumic acid]
IC50 [2]: 691 nM

Gentamicin
MIC ([3]; broth dilution, 37° C., 48 hours, anaerobic): 30 µg/mL

O=C(O[C@@H]1Cc2c(O)cc(O)cc2O[C@@H]1c1ccc(O)c(O)c1)c1cc(O)c(O)c(O)c1 [(−)-Epicatechin gallate]
IC50, SOD mimetic activity [4]: 2.698 µg/mL (≈ 6.1 µM) | IC50 [5]: 2.698 µg/mL (≈ 6.1 µM)

Superoxide dismutase (SOD): standard reference agent used, Human SOD MW = 2 × 28.3 KDa
IC50, SOD mimetic activity [4]: 0.475 µg/mL

CC1(C)S[C@@H]2[C@H](NC(=O)[C@H](N)c3ccccc3)C(=O)N2[C@H]1C(=O)O [Ampicillin]
MIC [3, 6]: 0.1 µg/mL (≈ 0.286 µM)

CN(C)[C@@H]1C(O)=C(C(N)=O)C(=O)[C@@]2(O)C(O)=C3C(=O)c4c(O)cccc4[C@@](C)(O)[C@H]3C[C@@H]12 [Tetracycline]
MIC [3, 6]: 1 µg/mL (≈ 2.25 µM)

CC1COc2c(N3CCN(C)CC3)c(F)cc3c(=O)c(C(=O)O)cn1c23 (centres unmarked) [Ofloxacin]
MIC [3, 6]: 1 µg/mL (≈ 2.77 µM)

CN[C@H](CC(C)C)C(=O)N[C@H]1C(=O)N[C@@H](CC(N)=O)C(=O)N[C@H]2C(=O)N[C@H]3C(=O)N[C@H](C(=O)N[C@H](C(=O)O)c4cc(O)cc(O)c4-c4cc3ccc4O)[C@H](O)c3ccc(c(Cl)c3)Oc3cc2cc(c3O[C@@H]2O[C@H](CO)[C@@H](O)[C@H](O)[C@H]2O[C@H]2C[C@](C)(N)[C@H](O)[C@H](C)O2)Oc2ccc(cc2Cl)[C@H]1O [Vancomycin]
MIC ([3]; Cutibacterium acnes, ATCC6919, 48 h): 1 µg/mL (≈ 0.69 µM)

CC(C)(C)NC(=O)[C@H]1CC[C@H]2[C@@H]3CC[C@H]4NC(=O)C=C[C@]4(C)[C@H]3CC[C@]12C [Finasteride]
IC50 [1]: 25 nM
